Laboratory results published in article PMC12736255, “Reinvestigating Pyrrol-2-One-Based Compounds: From Antimicrobial Agents to Promising Antitumor Candidates” (Pharmaceuticals, 2025).

Experiments:
Assay in all cases: NCI-60 single-dose screen
MCF7 = format: cell-based; details: Homo sapiens; MCF7, 10^–5 M; read-out: GI (%)
In short: (§1)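 Read-out is from the NCI-60 program: human tumor lines exposed to a single 10^−5 M dose of each compound.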

SNB-19 = format: cell-based; details: Homo sapiens; SNB-19, 10^–5 M; read-out: GI (%)
In short: as §1

MDA-MB-435 = format: cell-based; details: Homo sapiens; MDA-MB-435, 10^–5 M; read-out: GI (%)
In short: as §1

ACHN = format: cell-based; details: Homo sapiens, 10^–5 M, read-out: GI (%)
In short: as §1

HCT-116 = format: cell-based; details: Homo sapiens; HCT-116, 10^–5 M; read-out: GI (%)
In short: as §1

NCI/ADR-RES = format: cell-based; details: Homo sapiens, 10^–5 M, read-out: GI (%)
In short: as §1

HS 578T = format: cell-based; details: Homo sapiens, 10^–5 M, read-out: GI (%)
In short: as §1

T-47D = format: cell-based; details: Homo sapiens, T47D, 10^–5 M, read-out: GI (%)
In short: as §1

SK-MEL-28 = format: cell-based; details: Homo sapiens; SK-MEL-28, 10^–5 M; read-out: GI (%)
In short: as §1

OVCAR-5 = format: cell-based; details: Homo sapiens; OVCAR-5, 10^–5 M; read-out: GI (%)
In short: as §1

A549/ATCC = format: cell-based; details: Homo sapiens, 10^–5 M, read-out: GI (%)
In short: as §1

UACC-62 = format: cell-based; details: Homo sapiens; UACC-62, 10^–5 M; read-out: GI (%)
In short: as §1

SN12C = format: cell-based; details: Homo sapiens, 10^–5 M, read-out: GI (%)
In short: as §1

MOLT-4 = format: cell-based; details: Homo sapiens; MOLT-4, 10^–5 M; read-out: GI (%)
In short: as §1

EKVX = format: cell-based, human; details: Homo sapiens, 10^–5 M, read-out: GI (%)
Text: (§2) In the next step, all synthesized compounds were electronically submitted and accepted for testing to the National Cancer Institute (NCI) platform, for the single dose (10^−5 M) screening against a panel of 60 human tumor cell lines, representing leukemia, melanoma, and cancers of the lung, colon, central nervous system, ovary, kidney, prostate, and breast. The results are summarized in Table 2, with the best values highlighted in red (Figures S1–S14).

NCI-H226 = format: cell-based, human; details: Homo sapiens; NCI-H226, 10^–5 M; read-out: GI (%)
Text: as §2

MDA-MB-468 = format: cell-based, human; details: MDA-MB-468, 10^–5 M
Text: as §2

U251 = format: cell-based, human; details: U251, 10^–5 M
Text: as §2

UO-31 = format: cell-based, human; details: UO-31, 10^–5 M
Text: as §2

SF-295 = format: cell-based, human; details: SF-295, 10^–5 M
Text: as §2

HOP-62 = format: cell-based, human; details: HOP-62, 10^–5 M
Text: as §2

BT-549 = format: cell-based, human; details: BT-549, 10^–5 M
Text: as §2

Row | SMILES | inhibition at 10 µM (MCF7) [%] | inhibition at 10 µM (SNB-19) [%] | inhibition at 10 µM (MDA-MB-435) [%] | inhibition at 10 µM (ACHN) [%] | inhibition at 10 µM (HCT-116) [%] | inhibition at 10 µM (NCI/ADR-RES) [%] | inhibition at 10 µM (HS 578T) [%] | inhibition at 10 µM (T-47D) [%] | inhibition at 10 µM (SK-MEL-28) [%] | inhibition at 10 µM (OVCAR-5) [%] | inhibition at 10 µM (A549/ATCC) [%] | inhibition at 10 µM (UACC-62) [%] | inhibition at 10 µM (SN12C) [%] | inhibition at 10 µM (MOLT-4) [%] | inhibition at 10 µM (EKVX) [%] | inhibition at 10 µM (NCI-H226) [%] | GI (%) (MDA-MB-468) | GI (%) (U251) | GI (%) (UO-31) | GI (%) (SF-295) | further results
1 | O=C1C(Nc2ccc(I)cc2)=CC(c2ccccc2)N1c1ccc(I)cc1 (stereo not drawn) [3a] | 44 | 8 | 0 | 13 | 14 | 0 | 71 | 34 | 2 | 0 | 5 | 0 | 23 | 2 | 37 | 4 |  |  |  |  | 
2 | O=C1C(Nc2ccc(I)cc2)=CC(c2ccc(F)cc2)N1c1ccc(I)cc1 (stereo not drawn) [3b] | 56 | 8 | 0 | 35 | 21 | 9 | 90 | 32 | 8 | 0 | 13 | 0 | 28 | 66 | 24 | 4 |  |  |  |  | 
3 | O=C1C(Nc2ccc(I)cc2)=CC(c2ccc(Cl)cc2)N1c1ccc(I)cc1 (stereo not drawn) [3c] | 47 | 7 | 0 | 21 | 25 | 1 | 55 | 48 | 12 | 0 | 4 | 5 | 25 | 29 | 37 | 62 |  |  |  |  | 
4 | O=C1C(Nc2ccc(I)cc2)=CC(c2ccc(Br)cc2)N1c1ccc(I)cc1 (stereo not drawn) [3d] | 60 | 6 | 0 | 15 | 19 | 0 | 41 | 49 | 12 | 0 | 0 | 0 | 15 | 20 | 36 | 17 |  |  |  |  | 
5 | O=C1C(Nc2ccc(I)cc2)=CC(c2cc(C(F)(F)F)cc(C(F)(F)F)c2)N1c1ccc(I)cc1 (stereo not drawn) [3f] | 46 | 19 | 0 | 49 | 43 | 7 | 100 | 100 | 9 | 9 | 16 | 0 | 61 | 89 | 35 | 81 |  |  |  |  | 
6 | O=C1C(Nc2ccc(I)cc2)=CC(c2ccc(O)cc2)N1c1ccc(I)cc1 (stereo not drawn) [3g] | 83 | 17 | 38 |  | 61 | 44 | 100 | 80 | 42 | 24 | 22 | 33 | 60 | 100 | 64 | 47 | 96% | 29 | 54 | 48 | GI (%) (HOP-62): 5%; GI (%) (BT-549): 54%
7 | COc1ccccc1C1C=C(Nc2ccc(I)cc2)C(=O)N1c1ccc(I)cc1 (stereo not drawn) [3i] | 50 | 0 | 0 |  | 3 | 3 | 84 | 39 | 12 | 0 | 6 | 21 | 20 | 17 | 49 | 36 | 43% | 0 | 27 | 28 | GI (%) (HOP-62): 0%; GI (%) (BT-549): 2%
8 | COc1ccc(C2C=C(Nc3ccc(I)cc3)C(=O)N2c2ccc(I)cc2)cc1OC (stereo not drawn) [3j] | 6 | 0 | 0 | 0 | 0 | 0 | 0 | 6 | 0 | 0 | 5 | 0 | 0 | 0 | 40 | 0 | 22% | 0 | 0 | 0 | GI (%) (HOP-62): 0%; GI (%) (BT-549): 0%
9 | COc1cc(OC)c(C2C=C(Nc3ccc(I)cc3)C(=O)N2c2ccc(I)cc2)cc1OC (stereo not drawn) [3k] | 23 | 0 | 0 | 0 | 4 | 0 | 0 | 8 | 0 | 0 | 3 | 0 | 2 | 0 | 0 | 0 | 44% | 0 | 0 | 2 | GI (%) (HOP-62): 0%; GI (%) (BT-549): 10%
10 | O=C1C(Nc2ccc(I)cc2)=CC(c2ccco2)N1c1ccc(I)cc1 (stereo not drawn) [3m] | 93 | 8 | 84 | 9 | 20 | 15 | 39 | 49 | 20 | 0 | 16 | 61 | 27 | 70 | 39 | 22 | 100 ^q1% | 0 | 17 | 63 | GI (%) (HOP-62): 50%; GI (%) (BT-549): 17%
11 | O=C1C(Nc2ccc(I)cc2)=CC(c2ccc3c(c2)OCO3)N1c1ccc(I)cc1 (stereo not drawn) [3n] | 30 | 5 | 0 | 0 | 9 | 0 | 25 | 22 | 3 | 0 | 15 | 0 | 16 | 20 | 12 | 3 | 83% | 0 | 6 | 9 | GI (%) (HOP-62): 0%; GI (%) (BT-549): 3%
